The record followed here is patent US7423020B2, “Treatment of mood disorders by administration of SMR1” (Institut Pasteur, priority 2001, dated 2008).

Experiment [1] has as its target T1, NEP (Rattus norvegicus, UniProt P07861).
T1 construct: incubations of membrane and fresh tissue slice preparations from nervous tissues; from tissue; host or cells: rat spinal cord (dorsal zone), fresh slices or 100 000 x g membrane fraction
T1 sequence (P07861 1-750): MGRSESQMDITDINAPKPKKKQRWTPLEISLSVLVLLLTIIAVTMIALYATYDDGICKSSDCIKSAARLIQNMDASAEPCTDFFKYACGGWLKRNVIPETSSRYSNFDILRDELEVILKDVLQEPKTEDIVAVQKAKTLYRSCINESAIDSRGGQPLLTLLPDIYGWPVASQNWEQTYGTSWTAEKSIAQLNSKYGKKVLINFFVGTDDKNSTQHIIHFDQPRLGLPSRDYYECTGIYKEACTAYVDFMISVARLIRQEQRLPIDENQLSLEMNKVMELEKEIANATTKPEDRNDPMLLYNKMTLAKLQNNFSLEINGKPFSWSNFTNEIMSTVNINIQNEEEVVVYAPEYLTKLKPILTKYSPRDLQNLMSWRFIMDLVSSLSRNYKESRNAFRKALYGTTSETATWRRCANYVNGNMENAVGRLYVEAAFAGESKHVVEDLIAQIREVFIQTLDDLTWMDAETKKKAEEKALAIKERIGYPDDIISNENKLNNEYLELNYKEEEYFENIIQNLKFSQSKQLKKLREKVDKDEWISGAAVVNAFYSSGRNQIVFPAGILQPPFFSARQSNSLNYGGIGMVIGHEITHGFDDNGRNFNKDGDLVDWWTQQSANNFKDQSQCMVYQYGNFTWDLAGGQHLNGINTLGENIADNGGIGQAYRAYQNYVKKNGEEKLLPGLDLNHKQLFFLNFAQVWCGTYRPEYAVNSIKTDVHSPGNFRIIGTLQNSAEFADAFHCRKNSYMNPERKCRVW
Nature of the experiment: Met-enkephalin hydrolysis by rat spinal cord slices and membrane preparations, RP-HPLC analysis. The format is biochemical. The settings on record: for inhibition of enkephalinase activity over the time of incubation: 37° C., from 10 to 30 min, 10 μM Phosphoramidon, 1 μM Thiorphan. How it is done: The organs are rapidly removed, dissected on ice, freed of nerve fibers and of adipose tissues and then washed in cold oxygenated glucose-and bicarbonate-containing Krebs Ringer (KRBG) solution, whose composition is the following: 120 mM NaCl-5 mM KCl-1.2 mM KH2PO4-27.5 mM NaHCO3-2.6 mM CaCl2-0.67 mM MgSO4-5.9 mM glucose. The slices of tissues are prepared either manually with the aid of a scalpel (1-2 mm thick), or mechanically with the aid of a “Tissue Chopper” (1 mm thick). Slices are then dispersed into reaction tubes where they are subjected to three successive washes in ice-cold oxygenated KRBG. […] The organs dissected out and washed in ice-cold KRBG are homogenized at 4° C. in 10 volumes (vol./wt.) of 50 mM Tris/HCl buffered at pH 7.2, using a Teflon-glass homogenizer (3×5 sec.). A first centrifugation of 5 min. at 1000×g and 4° C. makes it possible to remove the tissular debris and the nuclei in the pellet. A second centrifugation of the supernatant at 100 000×g and 5° C. concentrates the membrane fraction into the pellet, which will be superficially washed three times with cold Tris/HCl buffer and resuspended in fresh buffer using a Kontes homogenizer, aliquoted and stored at -80° C. while waiting to be used as enzyme source, at least until three months. For the experiments of analysis of the NEP peptidase activity, an ex vivo model using incubations of membrane and fresh tissue slice preparations from nervous tissues that are known to be appropriate for exploring NEP peptidase activity: i.e. the dorsal zone of rat spinal cord, was first developed. The metabolism rate of the NEP-sensitive peptides was measured using the both NEP substrates involved in the signaling of the nociceptive response: the neuropeptides Met-enkephalin and Substance P. […] (NEN, 12.5-25 nM) were used. The objective was to measure the NEP-specific endoproteolysis of these substrates. […] Furthermore, for studying the functional role of […] NO: 1), the reaction was carried out in the presence of the SMR1-peptide alone or combined with specific inhibitors of membrane peptidases which could inactivate the […] NO: 1) peptide by cleaving its C-terminal end: an inhibitor of carboxypeptidase […], 10 μM, Sigma) and an inhibitor of dipeptidylpeptidase IV (DPPIV inhibitor, 10 μM, Roche). […] Samples are kept at -30° C. until the measurement of their intact substrate and its metabolites content. The membrane preparations are preincubated in 50 mM Tris/HCl buffered at pH 7.2 and containing 10 μM Bestatin, at 25, 30 or 37° C. in constantly shaken water, in the presence or in the absence of NEP inhibitor. […] Samples are kept at -30° C. until the measurement of their intact substrate and its metabolites content. HPLC is a highly resolutive procedure that allows one to isolate, and detect by coupled spectrophotometer analysis, the non-radioactive peptides whose concentration is at least 1 to 10 μM. The C-18 RP-HPLC is based on the same principle as the C-18 Sep-Pak cartridge. The chromatographic analyses were used to study the hydrolysis of Met-Enkephalin, that were done on a C-18 LUNA analytical column (150×4.6 mm inner diameter, AIT) packed with 5 μm-diameter beads. […] Their identification and relative quantification (peak height) are checked by continuously monitoring the UV absorbance at 254 nm of column outflow. In first series of experiment, the slices and the membrane preparations of spinal cord tissues were incubated at 30° C. in a 1 ml final volume of KRBG, and at 37° C. in a 0.25 ml final volume of Tris/HCl 50 mM, pH 7.2, respectively.

Experiment [2] deals with T1, NEP. The experiment is described as follows: Met-enkephalin degradation by rat spinal cord slices, RIA assay. The format is biochemical. The settings on record: 10 μM; fresh spinal cord slices; 20 min at 25° C.; 10 μM Met-enkephalin. How it is done: (§1) For the experiments of analysis of the NEP peptidase activity, an ex vivo model using incubations of membrane and fresh tissue slice preparations from nervous tissues that are known to be appropriate for exploring NEP peptidase activity: i.e. the dorsal zone of rat spinal cord, was first developed. […] (NEN, 12.5-25 nM) were used.
(§2) The objective was to measure the NEP-specific endoproteolysis of these substrates.

Experiment [3] deals with T1, NEP. The experiment is described as follows: 3H-Substance P hydrolysis by rat spinal cord slices. The experiment is classed as biochemical. The settings on record: 25° C., over 30 min incubation, read-out: inhibition of Substance P degradation. As for the experimental part: as §1, §2
The C-18 Sep-Pak cartridges (Waters) were used to analyze the hydrolysis of the radiolabeled peptides: they separate compounds according to their differences in polarity. This solid-phase extraction procedure allows isolating the substrate from its metabolites, since the hydrophobic character of the peptide metabolites is reduced or even lost compared to the intact peptide substrate.
The radioactivity of eluted and isolated compounds is determined by liquid scintillation spectrometry.

Experiment [4] has as its system male Wistar/AF EOPS rats. Nature of the experiment: Behavioral despair test (forced swimming). The experiment is classed as in vivo, rat. How it is done:
Forty male Wistar/AF EOPS rats (Iffa-Credo Breeding Centre, 69-St-Germain sur l'Arbresle, France), weighing 300 to 320 g, were used. On arrival, the rats were labelled and distributed randomly in pairs into type F polycarbonate cages (48×27×20 cm, U.A.R., 91-Epinay-Sur-Orge, France). The animals were stabled in an air-conditioned animal house, at a temperature of 22-24° C. The rats were given food (M25 croquettes, Ets Pietrement, 77-Provins, France) and drink ad libitum and were subjected to a 12-hour light-darkness cycle.
After one week of familiarization with the laboratory conditions, the rats were weighed and distributed randomly into 3 treatment groups (n=12). The rats of the different groups will all be handled in the same way and under the same conditions.
The behavioral despair test takes place over two sessions: • a 15-minute test session; • a 5-minute retest session, performed 24 hours later.
During the test session, the rat was subjected to forced swimming in a Plexiglas cylinder (20 cm in diameter and 50 cm in height, containing 25 cm of water at 25° C.) and its behavior was recorded over 15 minutes. At the end of the test, the rat was removed from the water, dried gently, treated and then returned to its dwelling cage.
During the retest, 24 hours later, the rat was again placed in the water and its behavior was recorded over 5 minutes.
The recorded variables are the period of immobility during the first 5 minutes of both the test and the retest.
The peptide FG-005 (SMR1-QHNPR) (SEQ ID NO: 1) was suspended at a rate of 500 μg per 5 ml of 0.01N acetic acid, and then diluted with PBS to be administered at doses of 50 and 100 μg/kg via the i.v. route into the dorsal caudal vein of the rat, immediately after the test and 300 and 5 minutes before the retest the following day.
A bilateral probability paired t test was used to compare the two periods of immobility of the test with those of the retest in each of the groups. The results are expressed as an average ±standard error of mean (SEM)(FIG. 4). The statistical and graphical processing was performed using Statview5 and DeltaGraph® Pro 3.5 software.

Experiment [5] concerns male Wistar/AF EOPS rats. The experiment is described as follows: Behavioral despair test (forced swimming). The settings on record: first 5 minutes, n = 10. The experiment is classed as in vivo, rat.

One may read the inhibition as the relative decrease from the control value, in per cent. Take `O=C(O)CNC(=O)C(CS)Cc1ccccc1` (centres unmarked) [Thiorphan]: the inhibition at 1 µM on NEP [1] (1 μM, membrane preparations and fresh tissue slices, 10 min incubation at 37° C., read-out: inhibition of Met-enkephalin hydrolysis (enkephalinase activity)) lay in the range of 80 to 90%. Also, the inhibition at 10 µM was 80% on NEP [1] (10 μM, spinal cord slices, 20 min at 25° C., Met-enkephalin 10 μM, read-out: inhibition of Met-enkephalin degradation (RP-HPLC)) and 60 to 65% on NEP [3]. The “inhibition of enkephalinase activity over the time of incubation” value on NEP [1] was “almost complete inhibition”. The “protection of Met-enkephalin from degradation (RIA)” value on NEP [2] is given as 100%.
In the case of `CCCN(CCC)C1CCc2cccc(O)c2C1` (centres unmarked) [8-OH-DPAT, reference compound], the “change of period of immobility, retest compared with test” value with male Wistar/AF EOPS rats [4] (8-OH-DPAT treated rats) is “significantly reduce their period of immobility”. The “overall effect in the behavioral despair test” value in the experiment with male Wistar/AF EOPS rats [4] (FG-005 50 and 100 μg/kg i.v., 8-OH-DPAT as reference substance) is “significant anti-resignation effect”. The “Immobility period, Retest” value in the experiment with male Wistar/AF EOPS rats [5] (0.5 mg/kg i.p., 1440, 300, 30 min before the retest) amounted to 31.60 ± 11.51. Further, the “Immobility period, Test” value with male Wistar/AF EOPS rats [5] (8-OH-DPAT group, 0.5 mg/kg i.p., test session before any treatment) is 109.20 ± 11.43.
Regarding `CC(C)C[C@H](NP(=O)(O)O[C@@H]1O[C@@H](C)[C@H](O)[C@@H](O)[C@H]1O)C(=O)N[C@@H](Cc1c[nH]c2ccccc12)C(=O)O` [Phosphoramidon], the inhibition at 10 µM at NEP [1] (10 μM, membrane preparations and fresh tissue slices, 10 min incubation at 37° C., read-out: inhibition of Met-enkephalin hydrolysis (enkephalinase activity)) fell in the range of 80 to 90%; on NEP [3] it was 60 to 65%. For the same compound, the “inhibition of Met-enkephalin degradation (RP-HPLC)” value on NEP [1] (10 μM, spinal cord slices, 20 min at 25° C., Met-enkephalin 10 μM) is recorded as “complete inhibition”. For the same compound, the “inhibition of enkephalinase activity over the time of incubation” value at NEP [1] is given as “almost complete inhibition”. For the same compound, on NEP [2], the “protection of Met-enkephalin from degradation (RIA)” value was determined as 96%.
